From patent US8362031B2, “Lonidamine analogues and treatment of polycystic kidney disease” (University of Kansas, priority 2004, dated 2013)

Assays:
Cdk4 = assay: Western blot of treated ADPKD cells; type: cell-based, human; conditions: 50 uM
Experimental: (§1) Gamendazole (GMZ) was tested to determine if treatment decreases Hsp90 client protein levels in ADPKD cells. Briefly, ADPKD cells were treated with 50 μM GMZ for 24, 48 or 72 hours. Proteins from 20 μg total cell lysate were separated by SDS-PAGE, transferred to a PVDF membrane and probed with antibodies against the Hsp90 client proteins ErbB2 (185 kD), and cdk4 (34 kD).

ErbB2 = assay: Western blot of treated ADPKD cells; type: cell-based, human; conditions: 50 uM
Experimental: as §1

O=C(O)CCc1nn(Cc2ccc(Cl)cc2Cl)c2cc(C(F)(F)F)ccc12 [GMZ, 3-[1-(2,4-dichlorobenzyl)-6-trifluoromethyl-1H-indazol-3-yl]-propionic acid]
levels of the Hsp90 client protein Cdk4 (Cdk4): decreased levels | levels of the Hsp90 client protein ErbB2 (ErbB2): decreased levels
